Data taken from patent publication US11529323B2 (priority 2017, dated 2022).

What was measured:
[1] = test system: C-26 colon adenocarcinoma cachexia model; assay: AR-42 dose-response study in the C-26 cachexia model; format: in vivo, mouse
Procedure: (§1) These studies were performed as previously described (Tseng Y C, et al. J Natl Cancer Inst. 2015 107(12):djv274) with modifications. Tumors were established in the right flank by subcutaneous injection of C-26 cells (0.5×10^6 cells in 0.1 mL). […] TFM-4AS-1 (a potent experimental SARM), dihydrotestosterone (DHT) and vehicles were administered by subcutaneous injection.
Male CD2F1 mice were stratified by body weight and then randomly assigned into 5 groups of 6 animals each. C-26 tumors were established in four of the groups, while those in the fifth group, serving as tumor-free controls, were injected with sterile saline. Six days later, animals with palpable tumors were treated with AR-42 once daily at 10 (n=5) and 20 mg/kg (n=6), and every other day at 50 mg/kg (n=5), or vehicle control (n=4) for 13 days. Upon sacrifice on study day 18, when the majority of tumor-bearing control mice met euthanasia criteria, the left gastrocnemius muscle was excised and flash frozen in liquid nitrogen and stored at −80° C. for subsequent analyses. Carcass weights were corrected for tumor weight by assuming a tumor density equivalent to water (1 g/cm^3).

[2] = test system: C-26 colon adenocarcinoma cachexia model; assay: Confirmatory AR-42/GTx-024 combination study (Study 2), C-26 model; format: in vivo, mouse
Procedure: as §1
(§2) This confirmatory study was performed exactly as Study 1 with expanded animal numbers. Tumor-free control groups were maintained at 6 animals each, whereas 10 animals were included in each of the tumor-bearing groups. […] Grip strength was measured on study days 0 (baseline) and 16. Due to rapid model progression, this study was terminated after only 12 days of treatment.
Forelimb grip strength was measured using Bio-GS3 Grip Strength Test Meter (Forceleader DBA Bioseb, Pinellas Park, Fla.). Each mouse was held by the base of its tail and lowered over the apparatus until its forepaws grasped the metal pull bar. The mouse was then gently pulled horizontally in a straight line away from the grip strength meter until the mouse released the bar. The force applied to the bar at the moment of release was recorded as the peak force. Five measurements were taken from each mouse, the average of which was designated as the mouse's grip strength.

IL-6 = assay: Serum IL-6 ELISA, Study 2; format: in vivo, mouse; settings: Study 2 terminal serum; AR-42 10 mg/kg
From the text: FIG. 4A is a table showing multiplex analysis of diverse serum cytokines in terminal samples from Study 2. Presented cytokines are limited to those showing significant differences from tumor-bearing vehicle-treated controls. G-CSF: granulocyte colony-stimulating factor, GM-CSF: granulocyte macrophage colony-stimulating factor, IL-6: interleukin-6, IL-17: interleukin-17, IP-10: interferon gamma-induced protein 10, KC: chemokine (C-X-C motif) ligand 1, LIF: leukemia inhibitory factor, M-CSF: macrophage colony-stimulating factor. FIG. 4B is a bar graph showin ELISA analysis of serum IL-6 levels in terminal samples from Study 2. ND, not detected. FIG. 4C is a plot showing individual animal serum IL-6 values as determined in A plotted against tumor-corrected terminal bodyweights from Study 2 (Pearson's Correlation). […] FIG. 4E is a plot showing spleen weights normalized to tumor-corrected terminal body weights of mice from Study 2. FIG. 4F is a bar graph showing ELISA analysis of STAT3 within C-26 tumors from Study 2. […]
(§3) Serum cytokine panel analyses were performed by a commercial vendor (Eve Technologies, Calgary, Canada) as previously described. Serum interleukin-6 (IL-6) was measured using a commercial ELISA kit (R&D Systems, Minneapolis, Minn., USA) according to the manufacturer's instructions.

C-26 tumor-bearing mice = settings: AR-42 50 mg/kg, Tseng et al. 2015, cited from earlier work
luteinizing hormone = assay: Serum luteinizing hormone radioimmunoassay, Study 1; format: in vivo, mouse; settings: Study 1, Day 18; C-26 tumor bearing mice; GTx-024 15 mg/kg
Procedure: FIG. 9A is a bar graph showing serum luteinizing hormone levels measured on Day 18. FIG. 9B is a graph showing per animal food consumption measured every two days. FIG. 9C is a plot showing spleen weights normalized to tumor mass-corrected terminal body weight. […], versus tumor-bearing vehicle-treated controls, Dunnett's multiple comparison test.
Luteinizing hormone (LH) was measured in serum by a two-site sandwich radioimmunoassay performed by the Ligand Assay and Analysis Core at the Center for Research in Reproduction, University of Virginia School of Medicine (Charlottesville, Va.). Serum was isolated by centrifugation (2000×g, 15 minutes) from whole blood samples collected from mice immediately post-mortem, and then stored at −80° C. until shipment on dry ice.

serum cytokines = assay: Serum cytokine panel, multiplex analysis, Study 2, tumor-free mice; format: in vivo, mouse; settings: GTx-024 15 mg/kg p.o. qd, Day 17 sacrifice, mean ± SD
Procedure: as §2, §3

CC(C)[C@H](C(=O)Nc1ccc(C(=O)NO)cc1)c1ccccc1 [AR-42, (S)—N-hydroxy-4-(3-methyl-2-phenylbutanamido)benzamide]
lowest efficacious dose ([1]; daily oral, C-26 model): 10 mg/kg
tumor-corrected body weight ([1]; thirteen daily oral doses of 20 or 10 mg/kg, similar to six 50 mg/kg doses q2d, C-26 tumor-bearing mice, Day 18): reversed C-26 tumor-mediated reductions in tumor-corrected body weight
spleen mass ([2]; Study 1 and 2, C-26 tumor-bearing, normalized to tumor-corrected terminal body weight): either unchanged or slightly increased
forelimb grip strength ([2]; Study 2, day 16, C-26 tumor-bearing): improved grip strength over vehicle-treated tumor-bearing controls
adipose or heart mass ([2]; Study 2, AR-42 10 mg/kg): had no impact on adipose or heart mass
effect on gastrocnemius and quadriceps mass ([2]; Study 2, C-26 tumor-bearing, versus vehicle-treated tumor-bearing controls): significantly spared gastrocnemius and quadriceps mass
circulating IL-6 levels (ELISA) (IL-6): did not affect circulating IL-6 levels
effect on adipose (C-26 tumor-bearing mice): adipose-sparing effect
serum IL-6 levels and gastrocnemius IL-6 receptor mRNA abundance (C-26 tumor-bearing mice; tumor-bearing mice): reduced serum IL-6 levels, as well as gastrocnemius IL-6 receptor mRNA abundance

C[C@](O)(COc1ccc(C#N)cc1)C(=O)Nc1ccc(C#N)c(C(F)(F)F)c1 [GTx-024, (2S)-3-(4-cyanophenoxy)-N-(4-cyano-3-(trifluoromethyl)phenyl)-2-hydroxy-2-methylpropanamide]
serum luteinizing hormone (luteinizing hormone): suppression of serum luteinizing hormone
Eotaxin, serum (serum cytokines): 669.53 ± 100.70 pg/mL
G-CSF, serum (serum cytokines): 338.39 ± 71.70 pg/mL
GM-CSF, serum (serum cytokines): 13.27 ± 4.62 pg/mL
IFNg, serum (serum cytokines): 5.93 ± 2.14 pg/mL
IL12 (p40), serum (serum cytokines): 22.48 ± 13.42 pg/mL
IL-1a, serum (serum cytokines): 60.41 ± 56.12 pg/mL
IL-1b, serum (serum cytokines): 14.65 ± 5.66 pg/mL
IL-2, serum (serum cytokines): 15.43 ± 6.56 pg/mL
IL-3, serum (serum cytokines): 1.10 ± 0.63 pg/mL
IL-4, serum (serum cytokines): 0.48 ± 0.37 pg/mL
IL-5, serum (serum cytokines): 5.71 ± 3.26 pg/mL
IL-6, serum (serum cytokines): 2.45 ± 1.31 pg/mL
IL-7, serum (serum cytokines): 11.51 ± 11.06 pg/mL
IL-9, serum (serum cytokines): 8.02 ± 6.78 pg/mL
IL-10, serum (serum cytokines): 2.38 ± 1.13 pg/mL
IL-12 (p70), serum (serum cytokines): 10.83 ± 6.12 pg/mL
IL-13, serum (serum cytokines): 29.87 ± 12.81 pg/mL
IL-15, serum (serum cytokines): 131.33 ± 70.97 pg/mL
IL-17, serum (serum cytokines): 5.01 ± 1.18 pg/mL
IP-10, serum (serum cytokines): 145.68 ± 48.83 pg/mL
KC, serum (serum cytokines): 90.02 ± 17.69 pg/mL
LIF, serum (serum cytokines): 2.50 ± 2.34 pg/mL
LIX, serum (serum cytokines): 1316.67 ± 1662.66 pg/mL
M-CSF, serum (serum cytokines): 27.23 ± 10.09 pg/mL
MCP-1, serum (serum cytokines): 54.54 ± 7.47 pg/mL
MIG, serum (serum cytokines): 89.29 ± 41.83 pg/mL
MIP-1a, serum (serum cytokines): 75.46 ± 29.41 pg/mL
MIP-1b, serum (serum cytokines): 87.69 ± 10.61 pg/mL
MIP-2, serum (serum cytokines): 136.75 ± 47.91 pg/mL
RANTES, serum (serum cytokines): 20.84 ± 10.38 pg/mL
TNFa, serum (serum cytokines): 12.15 ± 4.24 pg/mL
VEGF, serum (serum cytokines): 0.87 ± 0.32 pg/mL
